Patent US20250263370A1 (Tay Therapeutics Limited, priority 2022, published 2025)
Where “and” joins values, the source holds several entries; their conditions need not be identical. Identical values can stand only once. Marks after values point to notes of the source that are not given here.

What was measured:
[1] = test system: collagen-induced arthritis; conditions: rat, in vivo, po
[2] = test system: rat anti-collagen IgG1 antibodies; assay: Rat anti-collagen IgG1 antibodies in serum of CIA rats at day 21; format: in vivo, Lewis rat; conditions: for Average rat anti-collagen IgG1 levels, Mean: day 21, group mean; for Final Rat Anti-Collagen IgG1 Antibody Con. / Rat Anti-Collagen IgG1 Antibody Con.: day 21, per animal; for Rat Anti-Collagen IgG1 Antibody Con.: before multiplying by Fold 2000
Protocol: Blood was additionally collected from groups 1-7 via cardiac puncture following euthanasia on Day 21. […] Serum was divided into two separate tubes and stored at −75±15° C. One tube was used to analyze IgG1, and the other tube was reserved for additional analyses.

[3] = test system: collagen-induced arthritis; assay: Histopathologic analysis of H&E-stained hind limbs of CIA rats; format: in vivo, Lewis rat; conditions: for pathologic observations after microscopic evaluation, overall: daily P.O. for 21 days; for Number of animals: Erosion/Ulcer, cartilaginous, Marked / Number of animals: Erosion/Ulcer, cartilaginous, Mild / Number of animals: Erosion/Ulcer, cartilaginous, Minimal / Number of animals: Erosion/Ulcer, cartilaginous, Moderate / Number of animals: Granulation tissue, Marked / Number of animals: Granulation tissue, Mild / Number of animals: Granulation tissue, Minimal / Number of animals: Granulation tissue, Moderate / Number of animals: Increased bone, periosteum, Marked / Number of animals: Increased bone, periosteum, Mild / Number of animals: Increased bone, periosteum, Minimal / Number of animals: Increased bone, periosteum, Moderate / Number of animals: Increased eroded surface, bone, Marked / Number of animals: Increased eroded surface, bone, Mild / Number of animals: Increased eroded surface, bone, Minimal / Number of animals: Increased eroded surface, bone, Moderate / Number of animals: Mixed cell inflammation, Marked / Number of animals: Mixed cell inflammation, Mild / Number of animals: Mixed cell inflammation, Minimal / Number of animals: Mixed cell inflammation, Moderate / Number of animals: No Visible Lesions: hind limbs, CIA induced, 8 animals examined
Description: Hind limbs were collected following euthanasia, with the left limb being used for H&E staining.
H&E-stained slides of designated tissues from animals were transferred to an independent pathologist for microscopic evaluation (SPFBio). Samples were assigned the histologic grades based on the severity of change from tissue where CIA was not induced. Histology grades assigned were as follows: grade 1 (minimal change), grade 2 (mild change), grade 3 (moderate change), grade 4 (marked change), and grade 5 (severe change).
Moderate inflammation was also associated with increased edema fluid, fibrin, and cellular debris. Marked mixed cell inflammation was characterized by dense, widespread accumulations of neutrophils and macrophages with lesser number of lymphocytes within one or more joint spaces, synovium and periarticular soft tissues. Marked inflammation was also associated with abundant edema fluid, fibrin, and cellular debris.
Marked granulation tissue (pannus) was associated with inflammation and was characterized by widespread fibrovascular connective tissue that expanded/replaced the periarticular soft tissues of one or more joints, extended into/expanded joint spaces, was contiguous with areas of erosion/ulcer in articular cartilage and/or increased eroded surface of bone, and variably extended along the diaphysis.
Instances of minimal increased eroded surface were not associated with fragments of bone contiguous and/or surrounded by granulation tissue. […] In some areas, increased eroded surfaces were contiguous with areas of erosion/ulcer in the articular cartilages. Instance of marked increased eroded surface were often associated with fragments of bone contiguous with and/or surrounded by granulation tissue.
This observation was typically most pronounced at joint margins (transition zone). The ulceration was often associated with inflammation and granulation tissue extending through the defect to the subchondral bone.
Marked increased periosteal bone (periosteal bone formation) was characterized by extensive areas of increased bone matrix and numerous prominent osteoblasts lining trabecular surfaces along the metaphysis and/or diaphysis of one or more bones. In some areas, increased periosteal bone was contiguous with increased eroded surface and/or erosion/ulcer at articular cartilage.

[4] = CIA rats, daily P.O. (group 4), hind limb H&E

SMILES	body weight over the course of the study [1]	pathologic observations after microscopic evaluation, overall ([3]; CIA rats)	Number of animals: Erosion/Ulcer, cartilaginous, Marked [3]	Number of animals: Erosion/Ulcer, cartilaginous, Mild [3]	Number of animals: Erosion/Ulcer, cartilaginous, Minimal [3]	Number of animals: Erosion/Ulcer, cartilaginous, Moderate [3]	Number of animals: Granulation tissue, Marked [3]	Number of animals: Granulation tissue, Mild [3]	Number of animals: Granulation tissue, Minimal [3]	Number of animals: Granulation tissue, Moderate [3]	Number of animals: Increased bone, periosteum, Marked [3]	Number of animals: Increased bone, periosteum, Mild [3]	Number of animals: Increased bone, periosteum, Minimal [3]	Number of animals: Increased bone, periosteum, Moderate [3]	Number of animals: Increased eroded surface, bone, Marked [3]	Number of animals: Increased eroded surface, bone, Mild [3]	Number of animals: Increased eroded surface, bone, Minimal [3]	Number of animals: Increased eroded surface, bone, Moderate [3]	Number of animals: Mixed cell inflammation, Marked [3]	Number of animals: Mixed cell inflammation, Mild [3]	also measured
C[C@@H]1C[C@H]2[C@@H]3CCC4=CC(=O)C=C[C@]4(C)[C@@]3(F)[C@@H](O)C[C@]2(C)[C@@]1(O)C(=O)CO [dexamethasone]	did not exhibit weight gains over the first 13 days of the study	No pathologic observations were noted	0	0	0	0	0	0	0	0	0	0	0	0	0	0	0	0	0	0	Average rat anti-collagen IgG1 levels, Mean ([2]; Group 3 (CIA + Dex)): 7833.69*; Final Rat Anti-Collagen IgG1 Antibody Con. ([2]; Group 3 (CIA + Dexamethasone)): 22019.88 units/ml and 5250.27 units/ml and 1296.14 units/ml and 2541.14 units/ml and 4553.59 units/ml and 7925.50 units/ml and 7346.16 units/ml; Rat Anti-Collagen IgG1 Antibody Con. ([2]; Group 3 (CIA + Dexamethasone)): 11.01 units/ml and 2.63 units/ml and 0.65 units/ml and 1.27 units/ml and 5.87 units/ml and 2.28 units/ml and 3.96 units/ml and 3.67 units/ml; pathologic observations after microscopic evaluation, overall ([3]; CIA rats, listed as Dexamethasone): no histopathological observations noted; Number of animals: Mixed cell inflammation, Minimal [3]: 0; Number of animals: Mixed cell inflammation, Moderate [3]: 0; Number of animals: No Visible Lesions [3]: 8
CNC(=O)c1cc(C(=O)NC2CC2)cn(Cc2ccccc2)c1=O [GSK620]	modest weight gains over the first 13 days of the study followed by weight loss	at a lower level relative to samples from animals in the CIA-induced group	0	6	0	2	0	4	0	4	0	6	0	2	0	4	1	3	0	0	diarrhea over the 21-day period [1]: did not have diarrhea; increase in body weight, day 21 compared to day 0 [1]: 0.8%; Average rat anti-collagen IgG1 levels, Mean ([2]; Group 4 (CIA + GSK620)): 7532.82*; Final Rat Anti-Collagen IgG1 Antibody Con. ([2]; Group 4 (CIA + GSK620)): 9149.39 units/ml and 10971.56 units/ml and 258.62 units/ml and 1400.18 units/ml and 15017.25 units/ml and 2682.44 units/ml and 9308.00 units/ml and 11475.12 units/ml; Rat Anti-Collagen IgG1 Antibody Con. ([2]; Group 4 (CIA + GSK620)): 4.57 units/ml and 5.49 units/ml and 0.13 units/ml and 0.70 units/ml and 7.51 units/ml and 1.34 units/ml and 4.65 units/ml and 5.74 units/ml; erosion/ulcer in articular cartilage [3, 4]: mild and mild to moderate; granulation tissue (pannus) [3, 4]: mild and mild to moderate; increased eroded surface of bone (bone resorption) [3, 4]: mild and minimal to moderate; increased periosteal bone (periosteal bone formation) [3, 4]: mild and mild to moderate; mixed cell inflammation [3, 4]: moderate; Number of animals: Mixed cell inflammation, Minimal [3]: 0; Number of animals: Mixed cell inflammation, Moderate [3]: 8; Number of animals: No Visible Lesions [3]: 0
